Laboratory results: ChEMBL document CHEMBL5257097, “An Isomer of Galidesivir That Potently Inhibits Influenza Viruses and Members of the Bunyavirales Order” (ACS Med Chem Lett, 2023)

Key:
Tacaribe virus = test: Antiviral activity against Tacaribe virus infected in African green monkey Vero cells assessed as inhibition of viral replication by visual analysis; format: functional, organism-based; settings: Mammarenavirus tacaribeense
Influenza A virus [1] = test: Antiviral activity against Influenza A virus H1N1 infected in dog MDCK cells assessed as reduction in virus-induced cytopathic effect measured after 15 to 30 mins by visual analysis; format: functional, organism-based
[2] = Selectivity index, ratio of CC50 for cytotoxicity against African green monkey Vero 76 cells infected with Rift valley fever virus assessed as reduction in cell viability by visual analysis to EC50 for antiviral activity against Rift valley fever virus infected in African green monkey Vero 76 cells assessed as reduction in virus-induced cytopathic effect by visual analysis; format: toxicity, cell-based; settings: read-out: Ratio CC50/EC50
Yellow fever virus [3] = test: Antiviral activity against Yellow fever virus infected in human Huh-7 cells assessed as reduction in virus-induced cytopathic effect measured after 15 to 30 mins by visual analysis; format: functional, organism-based; settings: Yellow fever virus, Huh-7; read-out: EC50
[4] = Cytotoxicity against dog MDCK cells infected with Influenza A virus H1N1 assessed as reduction in cell viability by neutral red dye based assay; format: toxicity, Canis lupus familiaris
[5] = Cytotoxicity against African green monkey Vero 76 cells infected with MERS-CoV assessed as reduction in cell viability by visual analysis; format: toxicity, cell-based; settings: chlorocebus sabaeus
[6] = tested on: Middle East respiratory syndrome-related coronavirus; test: Antiviral activity against MERS-CoV infected in African green monkey Vero 76 cells assessed as reduction in virus-induced cytopathic effect measured after 15 to 30 mins by neutral red dye based analysis; format: functional, organism-based
Zika virus [7] = test: Antiviral activity against Zika virus infected in African green monkey Vero 76 cells assessed as reduction in virus-induced cytopathic effect measured after 15 to 30 mins by neutral red based spectrophotometric analysis; format: functional, organism-based
[8] = (§1) Selectivity index, ratio of CC50 for cytotoxicity against African green monkey Vero 76 cells infected with Zika virus assessed as reduction in cell viability by neutral red dye based analysis to EC50 for antiviral activity against Zika virus infected in African green monkey Vero 76 cells assessed as reduction in virus-induced cytopathic effect by neutral red based spectrophotometric analysis; format: toxicity; settings: read-out: Ratio CC50/EC50
[9] = (§2) Selectivity index, ratio of CC50 for cytotoxicity against dog MDCK cells infected with Influenza A virus H1N1 assessed as reduction in cell viability by visual analysis to EC50 for antiviral activity against Influenza A virus H1N1 infected in dog MDCK cells assessed as reduction in virus-induced cytopathic effect by visual analysis; format: toxicity, cell-based; settings: read-out: Ratio CC50/EC50
Huh-7 [10] = test: Cytotoxicity against human Huh-7 cells infected with DENV-2 assessed as reduction in cell viability by neutral red dye based assay; format: functional
[11] = Cytotoxicity against African green monkey Vero 76 cells infected with MERS-CoV assessed as reduction in cell viability by neutral red dye based analysis; format: toxicity; settings: chlorocebus sabaeus
[12] = Selectivity index, ratio of CC50 for cytotoxicity against African green monkey Vero 76 infected with Zika virus assessed as reduction in cell viability by visual analysis to EC50 for antiviral activity against Zika virus infected in African green monkey Vero 76 cells assessed as reduction in virus-induced cytopathic effect by visual analysis; format: toxicity, cell-based; settings: Vero 76 cells infected with Zika virus, read-out: Ratio CC50/EC50
[13] = as §2, with “human Huh-7” for “dog MDCK”, “DENV-2” for “Influenza A virus H1N1”, “neutral red” for “visual”; format: toxicity, cell-based; settings: read-out: Ratio CC50/EC50
Influenza A virus [14] = test: Antiviral activity against Influenza A virus H3N2 infected in dog MDCK cells assessed as inhibition of viral replication measured after 15 to 30 mins by visual analysis; format: functional, organism-based
Huh-7 [15] = test: Cytotoxicity against human Huh-7 cells infected with Yellow fever virus assessed as reduction in cell viability by neutral red dye based assay; format: functional
[16] = Cytotoxicity against African green monkey Vero 76 cells infected with Rift valley fever virus assessed as reduction in cell viability by visual analysis; format: toxicity, cell-based; settings: chlorocebus sabaeus
[17] = Cytotoxicity against African green monkey Vero 76 cells infected with Zika virus assessed as reduction in cell viability by neutral red dye based assay; format: toxicity; settings: chlorocebus sabaeus
Rift Valley fever virus [18] = test: Antiviral activity against Rift valley fever virus infected in African green monkey Vero 76 cells assessed as reduction in virus-induced cytopathic effect measured after 15 to 30 mins by neutral red dye based analysis; format: functional, organism-based
[19] = Cytotoxicity against African green monkey Vero 76 cells infected with Rift valley fever virus assessed as reduction in cell viability by neutral red dye based analysis; format: toxicity; settings: chlorocebus sabaeus
dengue virus type 2 [20] = test: Antiviral activity against DENV-2 infected in human Huh-7 cells assessed as reduction in virus-induced cytopathic effect measured after 15 to 30 mins by visual analysis; format: functional, organism-based
Huh-7 [21] = test: Cytotoxicity against human Huh-7 cells infected with DENV-2 assessed as reduction in cell viability by visual analysis; format: functional
[22] = Selectivity index, ratio of CC50 for cytotoxicity against African green monkey Vero E6 cells infected with Lymphocytic choriomeningitis virus assessed as reduction in cell viability to EC90 for antiviral activity against Lymphocytic choriomeningitis virus infected in African green monkey Vero E6 cells assessed as reduction in viral yield; format: toxicity, cell-based, Vero C1008
[23] = Cytotoxicity against African green monkey Vero E6 cells infected with Rift Valley fever virus assessed as reduction in cell viability; format: toxicity, cell-based, Vero C1008; settings: chlorocebus sabaeus
Influenza A virus [24] = test: Antiviral activity against Influenza A virus H1N1 infected in dog MDCK cells assessed as reduction in virus-induced cytopathic effect measured after 15 to 30 mins by neutral red based analysis; format: functional, organism-based
dengue virus type 2 [25] = test: Antiviral activity against DENV-2 infected in human Huh-7 cells assessed as reduction in virus-induced cytopathic effect measured after 15 to 30 mins by neutral red based analysis; format: functional, organism-based
[26] = Cytotoxicity against dog MDCK cells infected with Influenza A virus H1N1 assessed as reduction in cell viability by visual analysis; format: toxicity, cell-based, Canis lupus familiaris
[27] = as §2, with “human Huh-7” for “dog MDCK”, “Yellow fever” for “Influenza A”, “virus” for “virus H1N1”; format: toxicity, cell-based; settings: read-out: Ratio CC50/EC50
Rift Valley fever virus [28] = test: Antiviral activity against Rift valley fever virus infected in African green monkey Vero 76 cells assessed as reduction in virus-induced cytopathic effect measured after 15 to 30 mins by visual analysis; format: functional, organism-based
[29] = as §2, with “neutral red dye based” for “visual”; format: toxicity; settings: read-out: Ratio CC50/EC50
Zika virus [30] = test: Antiviral activity against Zika virus infected in African green monkey Vero 76 cells assessed as reduction in virus-induced cytopathic effect measured after 15 to 30 mins by visual analysis; format: functional, organism-based
[31] = Selectivity index, ratio of CC50 for cytotoxicity against African green monkey Vero 76 cells infected with Rift valley fever virus assessed as reduction in cell viability by neutral red dye based analysis to EC50 for antiviral activity against Rift valley fever virus infected in African green monkey Vero 76 cells assessed as reduction in virus-induced cytopathic effect by neutral red dye based analysis; format: toxicity; settings: read-out: Ratio CC50/EC50
[32] = Cytotoxicity against African green monkey Vero 76 cells infected with Zika virus assessed as reduction in cell viability by visual analysis; format: toxicity, cell-based; settings: chlorocebus sabaeus
[33] = tested on: Middle East respiratory syndrome-related coronavirus; test: Antiviral activity against MERS-CoV infected in African green monkey Vero 76 cells assessed as reduction in virus-induced cytopathic effect measured after 15 to 30 mins by visual analysis; format: functional, organism-based
[34] = Selectivity index, ratio of CC50 for cytotoxicity against human Huh-7 cells infected with Yellow fever virus assessed as reduction in cell viability by neutral red dye based assay to EC50 for antiviral activity against Yellow fever virus infected in human Huh-7 cells assessed as reduction in virus-induced cytopathic effect by neutral red based analysis; format: toxicity; settings: read-out: Ratio CC50/EC50
[35] = as §1, with “La Crosse” for “Zika”, “dye” for “dye based”, “viral replication” for “virus-induced cytopathic effect”, “dye” for “based spectrophotometric”; format: toxicity, cell-based; settings: read-out: Ratio CC50/EC50
[36] = as §2, with “human Huh-7” for “dog MDCK”, “DENV-2” for “Influenza A virus H1N1”; format: toxicity, cell-based; settings: read-out: Ratio CC50/EC50
Huh-7 [37] = test: Cytotoxicity against human Huh-7 cells infected with Yellow fever virus assessed as reduction in cell viability by visual assay; format: functional
Yellow fever virus [38] = test: Antiviral activity against Yellow fever virus infected in human Huh-7 cells assessed as reduction in virus-induced cytopathic effect measured after 15 to 30 mins by neutral red based analysis; format: functional, organism-based

Structure (SMILES) | EC50 (Influenza A virus [1]) [µM] | selectivity ratio [2] | EC50 (Yellow fever virus [3]) [µM] | CC50 [4] [µM] | CC50 [5] [µM] | EC50 [6] [µM] | EC50 (Zika virus [7]) [µM] | selectivity ratio [8] | selectivity ratio [9] | CC50 (Huh-7 [10]) [µM] | CC50 [11] [µM] | selectivity ratio [12] | selectivity ratio [13] | CC50 (Huh-7 [15]) [µM] | CC50 [16] [µM] | CC50 [17] [µM] | EC50 (Rift Valley fever virus [18]) [µM] | CC50 [19] [µM] | EC50 (dengue virus type 2 [20]) [µM] | CC50 (Huh-7 [21]) [µM] | further results
Nc1ncnn2c([C@@H]3N[C@H](CO)[C@@H](O)[C@H]3O)ccc12 | 0.42 | > 100 | 0.37 | 3 | 10 | 32 | 0.38 | 12 | 57 | 2.9 | 4.4 | 19 | 2.9 | 3.2 | 10 | 4.4 | < 0.1 | 8.9 | 0.32 | > 100 | EC50 (Tacaribe virus): 0.37 µM; EC50 (Influenza A virus [14]): 0.32 µM; selectivity ratio [22]: 80; CC50 [23]: 8.6 µM; EC50 (Influenza A virus [24]): 0.28 µM; EC50 (dengue virus type 2 [25]): 0.38 µM; CC50 [26]: 24 µM; selectivity ratio [27]: 8.6; EC50 (Rift Valley fever virus [28]): < 0.1 µM; selectivity ratio [29]: 23; EC50 (Zika virus [30]): 0.32 µM; selectivity ratio [31]: > 89; CC50 [32]: 6.1 µM; EC50 [33]: 0.32 µM; selectivity ratio [34]: 8.6; selectivity ratio [35]: > 240; selectivity ratio [36]: 10; CC50 (Huh-7 [37]): 3.2 µM; EC50 (Yellow fever virus [38]): 0.5 µM
Nc1ncnc2c([C@@H]3N[C@H](CO)[C@@H](O)[C@H]3O)c[nH]c12 [GALIDESIVIR] | 3.6 | > 4.3 | > 100 | > 100 | > 100 | > 100 | 33 | > 3 | > 28 | > 100 | > 100 | > 8.3 | > 100 | > 100 | > 100 | > 100 | 27 | > 100 | 13 | > 100 | EC50 (Influenza A virus [24]): 3.3 µM; EC50 (dengue virus type 2 [25]): 16 µM; CC50 [26]: > 100 µM; selectivity ratio [27]: > 3.6; EC50 (Rift Valley fever virus [28]): 23 µM; selectivity ratio [29]: > 30; EC50 (Zika virus [30]): 12 µM; selectivity ratio [31]: > 3.7; CC50 [32]: > 100 µM; EC50 [33]: > 100 µM; selectivity ratio [34]: > 5.6; selectivity ratio [36]: > 7.7; CC50 (Huh-7 [37]): > 100 µM; EC50 (Yellow fever virus [38]): 18 µM
